From EP2821071A1, “Compounds for breast cancer treatment” (Institut d'Investigació Biomèdica de Bellvitge (IDIBELL), priority 2013, dated 2015)
Blank lines part the entries; values can stand above or below the molecule they belong to.

What was measured:
[1] = system: MCF7-LTED cells; assay: MTT cell viability assay; assay type: cell-based
Protocol: (§1) MCF7-LTED cells were established in phenol red-free Roswell Park Memorial Institute medium containing 10% dextran-coated charcoal-stripped fetal bovine serum. Cellular viability was evaluated using a standard methylthiazol tetrazolium (MTT; Sigma-Aldrich) assay. The results of these assays are expressed relative to vehicle treated controls and to the original time point.
MCF7 and MCF7-LTED cells were plated in 384-well microtiter plates and five compound dilutions (1 nM to 10 µM final concentration) from the LOPAC library (1,258 compounds, Sigma-Aldrich) were added to the cultures. Cell viability was assessed after 72 hours using MTT-based assays and the EnVision spectrofluorometer (Perkin-Elmer). The screen was performed in triplicate. The quality of the screen (Z'-factor > 0.5 for all screens) and the data was analyzed using the cell HTS2 module in the ScreenSaver database. The data was normalized between 0 and 1 using positive (1 µM phenylarsene oxide, Sigma-Aldrich) and negative (0.1% dimethyl sulfoxide, Merck) controls for cell viability. For hit selection, the difference between the normalize percentage inhibition (NPI) in MCF7 and MCF7-LTED cells was calculated by subtraction [ΔNPI = NPI(MCF7-LTED) - NPI(MCF7)] and the differentials were clustered with the MeV software package using the Cluster Affinity Search method with the Euclidean distance metric (threshold of 0.7).
Acquired resistance to aromatase inhibitors in postmenopausal women can be modeled in long-term estrogen-deprived (LTED) MCF7 cells. Using this model, a cell-based chemical compound screen was carried out to identify potential therapeutic strategies that could prevent and/or overcome resistance. More than 1,200 compounds were assessed for their differential effect on the viability (as defined by MTT-based assays) of MCF7-LTED cells relative to the parental MCF7 cells.
Having identified the comparative inhibitory effect of YC-1 on the viability of MCF7-LTED cells, we evaluated the effect of this compound on a collection of breast cancer cell lines. […]

[2] = system: phenylephrine-induced contractions of rabbit aorta; conditions: cited from earlier work
[3] = system: platelet aggregation; conditions: cited from earlier work
[4] = system: E2F1; assay: E2F1 after YC-1 exposure of MCF7-LTED cells; assay type: cell-based; conditions: MCF7-LTED cells exposed to YC-1
Description: (§2) To determine the YC-1 mechanism of action that may be selective in models of acquired resistance, the subcellular localization of ERα was first examined. Although ERα levels and localization were altered by YC-1 treatment, no substantial differences were observed between MCF7-LTED and MCF7 cells. Subsequently, whole-genome expression data was obtained and analyzed for the basal and YC-1-exposed conditions in both cell lines. Consistent with the results described above, expression of the ribosome pathway clearly distinguished MCF7-LTED and MCF7 cells in basal conditions. […] In contrast, exposure of MCF7-LTED cells to YC-1 led to alteration of the cell cycle pathway and a decrease in a central positive regulator of the cell cycle, E2F1.

[5] = system: phospho-serine 235/236 ribosomal S6 protein; assay: Phospho-S6 after YC-1 exposure of MCF7 cells; assay type: cell-based; conditions: MCF7 cells exposed to YC-1
Description: as §2

[6] = system: MCF7 cells; assay: MTT cell viability assay; assay type: cell-based; conditions: Homo sapiens, MCF7 cell line
Protocol: as §1
[…] Cell viability was assessed after 72 hours using MTT-based assays and the EnVision spectrofluorometer (Perkin-Elmer). The screen was performed in triplicate. The quality of the screen (Z'-factor > 0.5 for all screens) and the data was analyzed using the cell HTS2 module in the ScreenSaver database. […] For hit selection, the difference between the normalize percentage inhibition (NPI) in MCF7 and MCF7-LTED cells was calculated by subtraction [ΔNPI = NPI(MCF7-LTED) - NPI(MCF7)] and the differentials were clustered with the MeV software package using the Cluster Affinity Search method with the Euclidean distance metric (threshold of 0.7).
Acquired resistance to aromatase inhibitors in postmenopausal women can be modeled in long-term estrogen-deprived (LTED) MCF7 cells. […] More than 1,200 compounds were assessed for their differential effect on the viability (as defined by MTT-based assays) of MCF7-LTED cells relative to the parental MCF7 cells. […]

[7] = system: AU565; assay: MTT cell viability assay; assay type: cell-based; conditions: Homo sapiens, AU565 cell line
Protocol: as §1
(§3) Having identified the comparative inhibitory effect of YC-1 on the viability of MCF7-LTED cells, we evaluated the effect of this compound on a collection of breast cancer cell lines. […] For the remaining sensitive cell lines (as defined by an IC50 < 10 µM threshold), no associations with ERα and/or progesterone receptor (PR) and/or human epidermal growth factor receptor 2 (HER2) were observed (Table 1). Table 1. YC-1 IC50 (µM) values in breast cancer cell lines

[8] = system: T47D; assay: MTT cell viability assay; assay type: cell-based; conditions: Homo sapiens, T47D cell line
Protocol: as §1, §3

[9] = system: HCC1937; assay: MTT cell viability assay; assay type: cell-based; conditions: Homo sapiens, HCC1937 cell line
Protocol: as §1, §3

[10] = system: MDA-MB-231; assay: MTT cell viability assay; assay type: cell-based; conditions: Homo sapiens, MDA-MB-231 cell line
Protocol: as §1, §3

[11] = system: BT474; assay: MTT cell viability assay; assay type: cell-based; conditions: Homo sapiens, BT-474, BT474 cell line
Protocol: as §1, §3

[12] = system: MDA-MB-453; assay: MTT cell viability assay; assay type: cell-based; conditions: Homo sapiens, MDA-MB-453 cell line
Protocol: as §1, §3

[13] = system: SKBR3; assay: MTT cell viability assay; assay type: cell-based; conditions: Homo sapiens, SK-BR-3, SKBR3 cell line
Protocol: as §1, §3

[14] = system: ZR751; assay: MTT cell viability assay; assay type: cell-based; conditions: Homo sapiens, ZR-75-1, ZR751 cell line
Protocol: as §1, §3

[15] = system: MCF10A; assay: MTT cell viability assay; assay type: cell-based; conditions: Homo sapiens, MCF-10A, MCF10A cell line
Protocol: as §1, §3

[16] = system: MDA-MB-468; assay: MTT cell viability assay; assay type: cell-based; conditions: Homo sapiens, MDA-MB-468 cell line
Protocol: as §1, §3

[17] = system: MCF7-HER2; assay: MTT cell viability assay; assay type: cell-based; conditions: MCF7-HER2 cell line
Protocol: as §1, §3

[18] = system: ERα; assay: Subcellular localization of ERα after YC-1 treatment; assay type: cell-based; conditions: MCF7-LTED and MCF7 cells; no substantial differences between the two
Description: as §2

SMILES: Nc1nc(-c2nn(Cc3ccccc3F)c3ncccc23)ncc1C1CC1 [BAY 41-2272]
differences in cell viability ([1]; MCF7-LTED versus MCF7 cells, validation, Fig. 1C): differences in cell viability, although of lesser magnitude | IC50 [2]: 0.3 µM | IC50 [3]: 0.036 µM

SMILES: COc1cc2ncnc(Nc3ccc(F)c(Cl)c3)c2cc1OCCCN1CCOCC1 [Gefitinib, reference compound]
differences in the growth rate of the two cellular models ([1]; MCF7-LTED versus MCF7 cells, Fig. 1D): No differences

IC50 ([1]; MCF7-LTED cell line (long-term estrogen-deprived), cell viability): 4.9 µM | IC50 [6]: 131 µM | IC50 [8]: 8.2 µM | IC50 [9]: 253 µM | IC50 [10]: 4480 µM | IC50 [11]: 319 µM | IC50 [12]: 250 µM | IC50 [13]: 1.6 µM | IC50 [16]: 49 µM | IC50 [17]: 187 µM
SMILES: OCc1ccc(-c2nn(Cc3ccccc3)c3ccccc23)o1 [YC-1, 3-(5'-hydroxymethyl-2'-furyl)-1-benzylindazole]
E2F1 [4]: decrease | phospho-serine 235/236 ribosomal S6 protein [5]: decrease | IC50 [7]: 1.3 µM | IC50 [14]: 0.3 µM | IC50 [15]: 99 µM | ERα levels and localization [18]: altered
